From PubChem BioAssay AID256 (DTP/NCI, 2004)
Where “and” joins values, the source holds several entries; their conditions need not be identical. Identical values can stand only once. Inconclusive results and toxic doses are left out.

Tested on: CD2F1 mice, L1210 leukemia ip, survival T/C
Test: NCI In Vivo Anticancer Drug Screen. Data for tumor model L1210 Leukemia (intraperitoneal) in CD2F1 (CDF1) mice
Details: higher = longer survival
Method in brief: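 Each value reflects a quotient of treated over vehicle control outcomes in mice with a transplanted tumor.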

[1] = endpoint: mean survival time, dose: 100.0 mg/kg/injection, schedule: Q01DX009 (ip), vehicle: saline with Tween-80
[2] = endpoint: mean survival time, dose: 200.0 mg/kg/injection, schedule: Q01DX009 (ip), vehicle: saline with Tween-80
[3] = endpoint: mean survival time, dose: 400.0 mg/kg/injection, schedule: Q01DX009 (ip), vehicle: saline with Tween-80
[4] = endpoint: mean survival time, dose: 25.0 mg/kg/injection, schedule: Q04DX003 (ip), vehicle: saline with Tween-80
[5] = endpoint: mean survival time, dose: 100.0 mg/kg/injection, schedule: Q04DX003 (ip), vehicle: saline with Tween-80
[6] = endpoint: mean survival time, dose: 200.0 mg/kg/injection, schedule: Q04DX003 (ip), vehicle: saline with Tween-80
[7] = endpoint: mean survival time, dose: 25.0 mg/kg/injection, schedule: Q01DX009 (ip), vehicle: saline with Tween-80
[8] = endpoint: mean survival time, dose: 100.0 mg/kg/injection, schedule: Q01DX009 (ip), vehicle: other
[9] = endpoint: mean survival time, dose: 200.0 mg/kg/injection, schedule: Q01DX009 (ip), vehicle: other
[10] = endpoint: mean survival time, dose: 25.0 mg/kg/injection, schedule: Q01DX009 (ip), vehicle: saline
[11] = endpoint: mean survival time, dose: 100.0 mg/kg/injection, schedule: Q04DX003 (ip), vehicle: other
[12] = endpoint: mean survival time, dose: 200.0 mg/kg/injection, schedule: Q04DX003 (ip), vehicle: other

SMILES: CCC(C)C(=O)CN(C)c1ccccc1 (stereo not drawn)
- T/C (endpoint: mean survival time, dose: 100.0 mg/kg/injection, schedule: Q04DX003 (ip), vehicle: saline): 102 % of control
- T/C (endpoint: mean survival time, dose: 200.0 mg/kg/injection, schedule: Q04DX003 (ip), vehicle: saline): 102 % of control
- T/C (endpoint: mean survival time, dose: 400.0 mg/kg/injection, schedule: Q04DX003 (ip), vehicle: saline): 100 % of control

SMILES: O=c1nc2n(cc1F)C1OC(CCl)C(O)C1O2 (stereo not drawn)
- T/C (endpoint: median survival time, dose: 12.5 mg/kg/injection, schedule: Q01DX005 (ip), vehicle: saline with Tween-80): 101 % of control
- T/C (endpoint: median survival time, dose: 25.0 mg/kg/injection, schedule: Q01DX005 (ip), vehicle: saline with Tween-80): 104 % of control
- T/C (endpoint: median survival time, dose: 50.0 mg/kg/injection, schedule: Q01DX005 (ip), vehicle: saline with Tween-80): 97 % of control
- T/C (endpoint: median survival time, dose: 100.0 mg/kg/injection, schedule: Q01DX005 (ip), vehicle: saline with Tween-80): 101 % of control
- T/C (endpoint: median survival time, dose: 200.0 mg/kg/injection, schedule: Q01DX005 (ip), vehicle: saline with Tween-80): 105 % of control

SMILES: Nc1nnnc2c1ncn2C1OC(CO)C(O)C1O (stereo not drawn)
- T/C (endpoint: mean survival time, dose: 300.0 mg/kg/injection, schedule: Q01DX001 (ip), vehicle: saline): 121 % of control

SMILES: COC(=O)C1(C)CCCC2(C)C1CCC13OC1C(C(C)C)=CCC23 (stereo not drawn)
- T/C [1]: 104 % of control
- T/C [2]: 97 % of control
- T/C [3]: 101 % of control

SMILES: CC(=O)Nc1nc2nccn2c(=O)[nH]1
- T/C (endpoint: median survival time, dose: 50.0 mg/kg/injection, schedule: Q01DX005 (ip), vehicle: saline): 101 % of control
- T/C (endpoint: median survival time, dose: 100.0 mg/kg/injection, schedule: Q01DX005 (ip), vehicle: saline): 100 % of control
- T/C (endpoint: median survival time, dose: 200.0 mg/kg/injection, schedule: Q01DX005 (ip), vehicle: saline): 101 % of control

SMILES: OCCN1CCN(CCO)CC1.[Cl][Pt+2][Cl]
- T/C [4]: 101 % of control
- T/C [5]: 97 % of control
- T/C [6]: 94 % of control

SMILES: COc1ccc(C(O)C(C)c2ccc([N+](=O)[O-])cc2)cc1 (stereo not drawn)
- T/C (endpoint: mean survival time, dose: 100.0 mg/kg/injection, schedule: Q01DX001 (ip), vehicle: saline with Tween-80): 106 % of control
- T/C [1]: 105 % of control
- T/C (endpoint: mean survival time, dose: 200.0 mg/kg/injection, schedule: Q01DX001 (ip), vehicle: saline with Tween-80): 93 % of control
- T/C [2]: 103 % of control
- T/C (endpoint: mean survival time, dose: 400.0 mg/kg/injection, schedule: Q01DX001 (ip), vehicle: saline with Tween-80): 98 % of control
- T/C [3]: 94 % of control

SMILES: C[CH2][Pb]([CH2]C)([CH2]C)[O]C(=O)c1ccc2ccccc2n1
- T/C (endpoint: mean survival time, dose: 0.4 mg/kg/injection, schedule: Q01DX009 (ip), vehicle: saline): 103 % of control
- T/C (endpoint: mean survival time, dose: 0.8 mg/kg/injection, schedule: Q01DX009 (ip), vehicle: saline): 103 % of control
- T/C (endpoint: mean survival time, dose: 1.6 mg/kg/injection, schedule: Q01DX009 (ip), vehicle: saline): 101 % of control

SMILES: CC(C)(C)C1SCC(CO)CS1 (stereo not drawn)
- T/C (endpoint: mean survival time, dose: 100.0 mg/kg/injection, schedule: Q04DX002 (ip), vehicle: saline with Tween-80): 97 % of control
- T/C (endpoint: mean survival time, dose: 200.0 mg/kg/injection, schedule: Q04DX002 (ip), vehicle: saline with Tween-80): 102 % of control
- T/C (endpoint: mean survival time, dose: 400.0 mg/kg/injection, schedule: Q04DX002 (ip), vehicle: saline with Tween-80): 91 % of control

SMILES: COc1cc(C[C@@H]2COC(=O)[C@]2(O)Cc2ccc(O)c(OC)c2)ccc1O
- T/C (endpoint: mean survival time, dose: 1.0 mg/kg/injection, schedule: Q01DX009 (ip), vehicle: saline + alcohol): 106 % of control
- T/C (endpoint: mean survival time, dose: 2.0 mg/kg/injection, schedule: Q01DX009 (ip), vehicle: saline + alcohol): 104 % of control
- T/C (endpoint: mean survival time, dose: 4.0 mg/kg/injection, schedule: Q01DX009 (ip), vehicle: saline + alcohol): 106 % of control
- T/C (endpoint: mean survival time, dose: 8.0 mg/kg/injection, schedule: Q01DX009 (ip), vehicle: saline + alcohol): 103 % of control
- T/C (endpoint: mean survival time, dose: 16.0 mg/kg/injection, schedule: Q01DX009 (ip), vehicle: saline + alcohol): 101 % of control

SMILES: CCSc1ncnc2c1ncn2C1OC(CO)C(O)C1O (stereo not drawn)
- T/C (endpoint: mean survival time, dose: 132.0 mg/kg/injection, schedule: Q04DX003 (ip), vehicle: saline with Tween-80): 122 % of control
- T/C [2]: 171 % of control

SMILES: CC(C)(C)[Si](C)(C)Oc1ncc(F)c(O[Si](C)(C)C(C)(C)C)n1
- T/C (endpoint: mean survival time, dose: 5.0 mg/kg/injection, schedule: Q01DX009 (ip), vehicle: distilled water + Tween-80): 123 % of control
- T/C (endpoint: mean survival time, dose: 10.0 mg/kg/injection, schedule: Q01DX009 (ip), vehicle: distilled water + Tween-80): 113 % of control
- T/C (endpoint: mean survival time, dose: 20.0 mg/kg/injection, schedule: Q01DX009 (ip), vehicle: distilled water + Tween-80): 123 % of control

SMILES: CC1CCC2CC(=O)NC(=O)CC12 (stereo not drawn)
- T/C (endpoint: mean survival time, dose: 6.25 mg/kg/injection, schedule: Q01DX009 (ip), vehicle: saline with Tween-80): 98 % of control
- T/C (endpoint: mean survival time, dose: 6.25 mg/kg/injection, schedule: Q04DX003 (ip), vehicle: saline with Tween-80): 97 % of control
- T/C (endpoint: mean survival time, dose: 12.5 mg/kg/injection, schedule: Q01DX009 (ip), vehicle: saline with Tween-80): 95 % of control
- T/C (endpoint: mean survival time, dose: 12.5 mg/kg/injection, schedule: Q04DX003 (ip), vehicle: saline with Tween-80): 97 % of control
- T/C [7]: 96 % of control
- T/C [4]: 92 % of control

SMILES: Cc1cccc(NC(N)=S)n1
- T/C (endpoint: mean survival time, dose: 12.5 mg/kg/injection, schedule: Q01DX009 (ip), vehicle: other): 103 % of control
- T/C (endpoint: mean survival time, dose: 25.0 mg/kg/injection, schedule: Q01DX009 (ip), vehicle: other): 107 % of control
- T/C (endpoint: mean survival time, dose: 50.0 mg/kg/injection, schedule: Q01DX009 (ip), vehicle: other): 107 % of control
- T/C [8]: 91 % of control
- T/C [9]: 111 % of control

SMILES: COc1ccc(CCN(C=O)c2ccc(OC)c(OC)c2)cc1OC
- T/C (endpoint: mean survival time, dose: 12.5 mg/kg/injection, schedule: Q01DX009 (ip), vehicle: water): 96 % of control
- T/C (endpoint: mean survival time, dose: 25.0 mg/kg/injection, schedule: Q01DX009 (ip), vehicle: water): 98 % of control
- T/C (endpoint: mean survival time, dose: 50.0 mg/kg/injection, schedule: Q01DX009 (ip), vehicle: water): 98 % of control
- T/C (endpoint: mean survival time, dose: 100.0 mg/kg/injection, schedule: Q01DX009 (ip), vehicle: water): 100 % of control
- T/C (endpoint: mean survival time, dose: 200.0 mg/kg/injection, schedule: Q01DX009 (ip), vehicle: water): 100 % of control

SMILES: C1CSC(=[N+]2CC[N+](=C3SCCS3)CC2)S1
- T/C (endpoint: mean survival time, dose: 12.5 mg/kg/injection, schedule: Q01DX009 (ip), vehicle: saline): 101 % of control
- T/C [10]: 104 % of control
- T/C (endpoint: mean survival time, dose: 25.0 mg/kg/injection, schedule: Q04DX002 (ip), vehicle: saline): 100 % of control
- T/C (endpoint: mean survival time, dose: 50.0 mg/kg/injection, schedule: Q04DX002 (ip), vehicle: saline): 88 % of control

SMILES: C=CCNC(=O)/C=C/C(=O)NCC=C
- T/C [7]: 97 % of control
- T/C (endpoint: mean survival time, dose: 50.0 mg/kg/injection, schedule: Q01DX009 (ip), vehicle: saline with Tween-80): 97 % of control
- T/C [1]: 101 % of control
- T/C [5]: 97 % of control

SMILES: CC(N)C12CC3CC(CC(C3)C1)C2 (stereo not drawn)
- T/C [10]: 117 % of control
- T/C (endpoint: mean survival time, dose: 50.0 mg/kg/injection, schedule: Q01DX009 (ip), vehicle: saline): 98 % of control
- T/C (endpoint: mean survival time, dose: 100.0 mg/kg/injection, schedule: Q01DX009 (ip), vehicle: saline): 95 % of control

SMILES: CCCCOc1ccc(C=Nc2ccc(CC)cc2)cc1
- T/C [5]: 101 % of control
- T/C [6]: 97 % of control
- T/C (endpoint: mean survival time, dose: 400.0 mg/kg/injection, schedule: Q04DX003 (ip), vehicle: saline with Tween-80): 103 % of control

SMILES: CCCC(=O)c1cccc([N+](=O)[O-])c1
- T/C (endpoint: mean survival time, dose: 100.0 mg/kg/injection, schedule: Q01DX001 (ip), vehicle: other): 96 % of control
- T/C (endpoint: mean survival time, dose: 100.0 mg/kg/injection, schedule: Q04DX002 (ip), vehicle: other): 98 % of control
- T/C [11]: 103 % of control
- T/C (endpoint: mean survival time, dose: 200.0 mg/kg/injection, schedule: Q01DX001 (ip), vehicle: other): 93 % of control
- T/C (endpoint: mean survival time, dose: 200.0 mg/kg/injection, schedule: Q04DX002 (ip), vehicle: other): 100 % of control
- T/C [12]: 100 % of control
- T/C (endpoint: mean survival time, dose: 400.0 mg/kg/injection, schedule: Q01DX001 (ip), vehicle: other): 94 % of control
- T/C (endpoint: mean survival time, dose: 400.0 mg/kg/injection, schedule: Q04DX002 (ip), vehicle: other): 98 % of control
- T/C (endpoint: mean survival time, dose: 400.0 mg/kg/injection, schedule: Q04DX003 (ip), vehicle: other): 101 % of control
- T/C (endpoint: mean survival time, dose: 800.0 mg/kg/injection, schedule: Q01DX009 (ip), vehicle: other): 91 % of control and 94 % of control and 95 % of control

SMILES: OCc1cc(Cl)cc(Cl)c1O
- T/C [8]: 93 % of control
- T/C [11]: 92 % of control
- T/C [9]: 93 % of control
- T/C [12]: 92 % of control

SMILES: COc1cc(C2C3CN(C4CCCCC4)C(=O)C3NN2C(C)=O)ccc1OC(C)=O (stereo not drawn)
- T/C [1]: 93 % of control
- T/C [2]: 95 % of control
- T/C [3]: 95 % of control

SMILES: Cc1nc2c(O)cccn2c(=O)c1Cl
- T/C [5]: 102 % of control
